The source of these data is ChEMBL document CHEMBL5729070, “Substituted pyrrolo[1,2-a]pyrazines and pyrrolo[1,2-a][1,4]diazepines as TREX1 inhibitors” (2022).

The nature of the assay: Exonuclease Assay: To evaluate the effect of compounds on TREX1 activity, test compounds were serially diluted (11-point, 3-fold) from 10 mM stock solutions and delivered to 384-well low-volume assay plates in 80 nL DMSO using an acoustic dispenser. Next, 4 μL of human TREX1 (0.5 nM), or murine TREX1 (1 nM), diluted in assay buffer (20 mM Tris pH 7.5, 5 mM MgCl2, 100 μg/mL BSA, 0.002% Triton X-100, 2 mM DTT), was added to the assay plate. After incubating for 30 minutes, 4 μL of labeled DNA oligonucleotide (500 nM) in assay buffer was added to initiate TREX1 exonuclease activity. The reaction was allowed to proceed for 45 minutes at room temperature prior to the addition of 4 μL of 150 mM EDTA to halt TREX1 activity. Assay plates were equilibrated for an additional 30 minutes and read on an EnVision Plate Reader (Perkin Elmer) to measure fluorescence emission at 535 nm following excitation at 485 nm. Fluorescence was plotted as a function of log molar compound concentration and fit to four-parameter dose-response equation to determine compound IC50.

Broadly, the IC50 is the point on the concentration scale where inhibition reaches its midpoint. A lower IC50 goes with higher potency.

On to `CC(C)C[C@H](NC(=O)Cc1ccc(Cl)c(Cl)c1)N1CCC(CCc2ccccc2)N2C[C@H](N)C[C@H]2C1=O` (some centres not stated), for which the 50% inhibitory concentration (IC50) entry was “in the range around 5.5 µM”.
In turn, `CC(C)C[C@H](C(=O)NCc1ccc(Cl)c(Cl)c1)N1CCC(C=[S+](C)([O-])c2ccccc2)N2C[C@H](N)C[C@H]2C1=O` (some centres not stated) registered an IC50 of less than 1 µM.
